Data as given in patent US12121510B2 (Cedars-Sinai Medical Center, priority 2016, dated 2024).
Where two headings read alike, the source gives them in different places.

Key:
[1] = test system: Namalwa; assay: Lymphoma cell growth IC50 (MTT); format: cell-based, human
Excerpt: (§1) Exemplary Embodiments are generally performed as follows, unless otherwise noted. Simvastatin is purchased from Ark Pharm, Inc. (Arlington Heights, IL). Cisplatin (CIS) is purchased from MedKoo Biosciences, Inc. (Chapel Hill, NC). Dihydroartemisinin is purchased from TCI America (Portland, OR). All other chemicals and reagents are purchased from standard sources such as Sigma-Aldrich and/or VWR and are of highest quality available. Puromycin dihydrochloride was purchased from Alfa Aesar (Tewksbury, MA). Deionized water ([…]) used for making solutions is obtained from Milli-Q Direct Ultrapure Water System from Millipore (Billerica, MA, USA). All intermediates are characterized by 1H NMR and mass analysis and the purity of compounds are analyzed by HPLC. 1H NMR data are collected on Bruker 400 MHz spectrometers using standard parameters; chemical shifts are reported in ppm (δ) in reference to residual non-deuterated solvent. ESI mass spectroscopy analysis is performed using a Thermo Fisher LTQ Orbitrap Elite system. IC50 is the half maximal inhibitory concentration and determined is determined by crystal violet assay unless otherwise noted.
(§2) The crystal violet assay is performed as follows, unless otherwise noted. Cell lines are supplemented with RPMI 1640 medium, 10% fetal bovine serum, 1% PenStrep, and placed in a humidified atmosphere containing 5% CO2 at 37° C. 5,000 cells/well renal cancer cells and 10,000 cells/well lymphoma cells are seeded in 96 well plates in 100 microliter medium/per well for 24 h. […] Renal cancer cells are fixed with 3.7% paraformaldehyde for 15 minutes and are stained with Crystal violet solution (0.5% in 25% methanol) for 30 minutes. After rinsing with water cell layers are dried and decolorized with Sorenson citrate with shaking for 20 minutes. Light absorption of the extracted supernatant is read at 595 nm. Lymphoma cell growth was evaluated using MTT and cells are incubated for 4 hours. 100 microliters of isopropanol is added, and the extracted supernatant fraction is read at absorption maximum of 595 nm.
(§3) Standard cell culture conditions typically are RPMI 1640 medium, 10% fetal bovine serum, 1% PenStrep, and are performed in a humidified atmosphere containing 5% CO2 at 37° C. Generally, 5,000 cells/well-10,000 cells/well are seeded in 96 well plates in 100 microliter medium/per well for 24 h, or as described in Example 16, unless otherwise noted. Certain cells require specialized media, growth factors, antibiotics, or culture condition adjustments, as will be apparent to a person of ordinary skill in the art.
as §2, with “Cell” for “The crystal violet assay is performed as follows, unless otherwise noted. Cell”, “cultured as follows. […]” for “supplemented with RPMI 1640 medium, 10% fetal bovine serum, 1% PenStrep, and placed in a humidified atmosphere containing 5% CO2 at 37° C.”, “is” for “was”

[2] = test system: CTC 752-S-1; assay: Circulating tumor cell growth IC50 / sensitization; format: cell-based, human
Excerpt: as §1, §3
Pancreatic cancer cells are cultured for 72 hours in vitro and exposed to the conventional chemotherapeutic drugs Gemcitabine (GEM) and Paclitaxel (PAC), known to inhibit pancreatic cancer growth in patients. GEM (or PAC) alone are compared to a combination with SIM, or a combination with DZ-SIM. […] Representative results are illustrated in the graphs in FIG. 3.
Cells are cultured according to their standard culturing conditions, and IC50s are determined as described herein-above.
Representative results of the determined IC50s are shown in the table below for the indicated cancer cells cultured in vitro, including CTCs (C752-S-1), B-Cell Lymphoma (Namalwa), prostate cancer cells (C4-2B), and renal cancer cells (Caki-1). The cells are cultured according to their standard culturing conditions, and IC50s are determined as described herein-above.

[3] = test system: C4-2B; assay: Cancer cell growth IC50 (crystal violet); format: cell-based
Excerpt: as §1, §2, §3

[4] = test system: Caki-1; assay: Renal cancer cell growth IC50 (crystal violet); format: cell-based, human; details: Caki-1, read-out: IC50
Excerpt: as §1, §2, §3
as §2, with “Cell” for “The crystal violet assay is performed as follows, unless otherwise noted. Cell”, “cultured as follows. […]” for “supplemented with RPMI 1640 medium, 10% fetal bovine serum, 1% PenStrep, and placed in a humidified atmosphere containing 5% CO2 at 37° C.”, “is” for “was”

[5] = test system: 22Rv1 tumors; assay: Prostate tumor xenograft growth; format: in vivo, mice; details: IP twice per week, 37 days; SIM 1.1 mg/kg, DZ-SIM 5.5 mg/kg, DT 8 mg/kg
Experimental: A human prostate tumor xenograft model, 22Rv1 in immune compromised mice, is employed as follows. 1×10^6 freshly harvested cells of a cultured human prostate carcinoma cell line, 22Rv1, are inoculated s.q. in mice. Mice bearing 22Rv1 tumors (10 tumors/group) are randomized into 7 groups on day-1, and administered drugs by IP (intraperitoneally) at the next day (day-2), and subsequently twice per week, using the following drugs and dosages: a control/vehicle (V, i.e. no drug), DZ (5 μM or 3.9 mg/kg, calculated based on the body weight of mice which averaged 20 grams), SIM (5 μM or 1.1 mg/kg), DZ-SIM (5 μM or 5.5 mg/kg), docetaxel (DT, 8 mg/kg), SIM+DT (drug doses as indicated), and DZ-SIM+DT (drug doses as indicated). Administration is continued for a total of 37 days, and tumor volumes are measured at the indicated times (see FIG. 4). […] Thus therapeutically resistant prostate tumors can be rendered sensitive by DZ-SIM but not SIM.

[6] = Homo sapiens, Example 23, read-out: IC50
[7] = Homo sapiens, Example 23, CTC 752-S-1

Row | IC50 [1, 6] | IC50 ([3]; Example 23) | IC50 ([4]; Homo sapiens, Example 23) | SMILES | IC50 ([3]; Example 22) | IC50 [2, 7] | other results
1 |  |  |  | C[C@@H]1CC[C@H]2[C@@H](C)C(=O)O[C@@H]3O[C@@]4(C)CC[C@@H]1[C@]32OO4 [ART, Artemisinin] | 657 nM |  | IC50 ([1]; Homo sapiens, Example 22, read-out: IC50): > 64000 nM; IC50 ([2]; Homo sapiens, Example 22, CTC 752-S-1, 3D cultured tumor spheroids): > 64000 nM; IC50 ([4]; Homo sapiens, Example 22): > 64000 nM
2 |  |  |  | CC(=O)O[C@@]12CO[C@@H]1C[C@H](O)[C@@]1(C)C(=O)[C@H](O)C3=C(C)[C@@H](OC(=O)[C@H](O)[C@@H](NC(=O)OC(C)(C)C)c4ccccc4)C[C@@](O)([C@@H](OC(=O)c4ccccc4)[C@H]21)C3(C)C [DT, Docetaxel] |  |  | Growth of 22Rv1 tumors in vivo (tumor volume) [5]: ineffective
3 |  |  |  | CC1CCC2C(C)C(OC(=O)CCCCCN3C(=CC=C4CCCC(C=CC5=[N+](CCCCS(=O)(=O)[O-])c6ccccc6C5(C)C)=C4Cl)C(C)(C)c4ccccc43)OC3OC4(C)CCC1C32OO4 (centres unmarked) [DZ-ART ester] | 291 nM |  | IC50 ([1]; Example 22, read-out: IC50): 1300 nM; IC50 ([2]; Example 22, CTC 752-S-1, 3D cultured tumor spheroids): 1640 nM; IC50 ([4]; Example 22): 703 nM
4 | 6230 nM | 206 nM | > 64000 nM | COc1cccc2c1C(=O)c1c(O)c3c(c(O)c1C2=O)C[C@@](O)(C(=O)CO)C[C@@H]3O[C@H]1C[C@H](NC(=O)CCCCCN2/C(=C/C=C3\CCCC(/C=C/C4=[N+](CCCCS(=O)(=O)[O-])c5ccccc5C4(C)C)=C3Cl)C(C)(C)c3ccccc32)[C@@H](O)[C@H](C)O1 [DZ-Doxorubicin] |  | 3410 nM | 
5 | 22400 nM | 1320 nM | > 64000 nM | COc1ccc(C[C@H](NC(=O)CCCCCN2/C(=C/C=C3\CCCC(/C=C/C4=[N+](CCCCS(=O)(=O)[O-])c5ccccc5C4(C)C)=C3Cl)C(C)(C)c3ccccc32)C(=O)NC2C(CO)OC(n3cnc4c(N(C)C)ncnc43)C2O)cc1 (some centres unmarked) [DZ-Puromycin] |  | 31400 nM | 
